Measured values published in patent US20020115613A1, “Treatment of prostate cancer” (priority 2001, published 2002).
* marks the point of attachment. Cbz = O=C(OCc1ccccc1)*; CH2F = FC*

Legend:
LNCaP C4-2 cells = test: Western blotting of death receptors, caspases, Bid, cytochrome c, Akt; type: cell-based; details: LNCaP C4-2 treated with TRAIL and/or Mifepristone; inhibitor pre-treatment one hr; FIG. 7
Protocol: (§1) LNCaP were obtained from American Type Culture Collection (Rockville, Md.) and LNCaP C4-2 cells were purchased from Urocor Inc., Oklahoma City, Okla. Cells were grown in RPMI 1640 medium supplemented with 10% (LNCaP) or 5% (LNCaP C4-2) fetal bovine serum (Hyclone, Logan, Utah) and grown in the presence of 5% CO2 at 37° C. Cells were treated with 10 μM Mifepristone (Sigma, St. Louis, Mo.) for three days or with increasing concentrations (from 200 ng/ml to 600 ng/ml) of TRAIL (Biomol Research Laboratories, Inc., Plymouth Meetings, Pa.) for varying time intervals 2, 4, 6, 8, 16, 20 and 24 hours (hr). Thus, for treatment with Mifepristone, cells were treated with Mifepristone for three days and then some cells treated (without washing) with TRAIL for indicated periods. Upon completion of the experiment, cells were harvested, and total proteins, cytosol or mitochondrial fractions were isolated as described below. At least three experiments were conducted with a minimum of four plates per treatment per experiment.
(§2) For experiments using inhibitors, the cells were pre-treated with increasing concentrations of the inhibitors (10 μM to 100 μM) for one hr and then with TRAIL. Caspase-8-specific (Z-IETD-FMK) and caspase-9-specific ([…]) inhibitors were purchased from Enzyme Systems Products, Livermore, Calif. The inhibitors were dissolved in DMSO; to limit cellular toxicity, care was taken not to exceed 0.2% DMSO in the culture medium. Appropriate controls included vehicle treated cells with or without the inhibitors.
(§3) Cells were harvested by trypsinization, washed in 1×PBS and cell pellets resuspended in lysis buffer (100 mM Tris-HCl pH 8.0, 0.1% Triton X 100 and protease inhibitor cocktail from Roche Diagnostic Corporation, Indianapolis, Ind.). Cells were incubated over ice for 30 min and centrifuged at 10,000 g at 4° C. for 10 min. The supernatant was collected and the protein concentration estimated using Bio-Rad protein reagent (Bio-Rad Laboratories, Hercules, Calif.).
(§4) Proteins (50 μg, unless stated otherwise) were separated on NuPAGE 10% Bis-Tris gels (Novex pre-cast mini gels, InVitrogen, Carlsbad, Calif.) at 100 volts for 1 hour in the presence of 1×MES-SDS running buffer (InVitrogen, Carlsbad, Calif.). Separated proteins were transferred to (PVDF) membranes (Bio-Rad Laboratories, Hercules, Calif.) at 42 volts for 2.5 hr using a Novex XCell II blotting apparatus in MES transfer buffer in the presence of NuPAGE antioxidant. Transfer of the proteins to the polyvinylidene difluoride (PVDF) membrane was confirmed by staining with Ponceau S (Sigma, St. Louis, Mo.). The blots were blocked in 5% non-fat dry milk in TBS, washed twice for 10 min each with TBS containing 0.1% Tween-20 and incubated for 2 hr at RT with primary antibody diluted in TBS containing 0.5% milk.
(§5) The following antibodies were used in the immunoblots: DR4, DR5 and cytochrome c (Imgenex, San Diego, Calif.), BID (BioSource International, Camarillo, Calif.), caspases-8, -9, and Akt (Cell Signaling Technology, Beverely, Mass.), caspase-3 (BD Pharmingen, San Diego, Calif.) Iκβ and XIAP (Cell Signaling Technology, Beverly, Mass.), cFLIP (StressGen Biotechnology Corp, Victoria, Canada), actin (Sigma Chemical Co., St. Louis, Mo.) and Cox II (Molecular Probes, Eugene, Oreg.). Immunoreactive bands were visualized using ECL detection system (Amersham, Pharmacia Biotech, Arlington Heights, Ill.) and signals were developed after exposure to X-ray film (X-Omat films, Eastman Kodak Company, Rochester, N.Y.).
(§6) For separation of mitochondrial and cytosolic fractions, cells were trypsinized, centrifuged at 600 g for 10 min at 4° C., washed twice in ice-cold PBS and re-suspended in buffer A (20 mM HEPES-KOH, pH 7.2, 10 mM KCl, 1.5 mM MgC12, 1 mM sodium-EDTA, 1 mM sodium-EGTA, 250 mM sucrose and protease inhibitor cocktail). Cells were homogenized on ice with a glass Dounce homogenizer (30 strokes) and were centrifuged at 750 g for 5 min at 4° C. […]

LNCaP cells = test: as above; type: cell-based; details: LNCaP treated with TRAIL and/or Mifepristone; inhibitor pre-treatment one hr; FIG. 7
Protocol: as §1, §2, §3, §4, §5, §6

prostate cancer cells = details: cited from earlier work
PC3AR cells = test: Induction of apoptosis / cell survival (FIG. 1E, 6A); type: cell-based; details: 5 μM hydroxyflutamide for 5 days, then 400 ng/ml TRAIL, FIG. 1E
Protocol: PC3AR cells are a clonal cell line derived by stable transfection of PC3 with a full-length human AR cDNA (Dai, J. L., et al., Steroids, 61, 531-539, 1996). PC3Neo cells were stably transfected with neomycin vector alone. Cells were grown in RPMI 1640 with 5% FBS (Hyclone, Logan, Utah), 100 units/ml penicillin, 100 μg/ml streptomycin, 0.25 μg/ml fungizone and G418 (350 μg/ml) to select for neomycin-resistant cells. In experiments using antiandrogens, cells were maintained in 5% DCC stripped serum for at least 48 hr before treatment with hydroxyflutamide (Sigma Chemical Co., St. Louis, Mo.). The medium and all the drugs were replaced every two days. Cells were treated with 200 ng/ml, 400 ng/ml or 600 ng/ml of TRAIL (Biomol Research Laboratories, Inc, Plymouth Meeting, Pa.) for 2, 4, 6, 8, 16 and 20 hr. Cells were treated with 5 μM hydroxyflutamide for 5 days before the commencement of treatment with 400 ng/ml TRAIL.
Two methods were used to measure induction of apoptosis by drug treatment: the MTT assay and the Apoptosense assay. The MTT assay measures mitochondrial enzyme activity and is indicative of the number of surviving cells. The Apoptosense assay is an ELISA, which utilizes M30 antibody to recognize the C-terminal domain (amino acids 387-396) of cytokeratin 18 that is exposed in apoptotic cells after cleavage by caspases.
Cells were seeded in 96-well plates (6000 cells/well) and treatment was started 24 hr after seeding the cells. After completion of the treatment, cells were incubated at 37° C. with the MTT reagent for 3 hr and processed according to manufacturers instructions (Promega Corporation, Madison, Wis.). Color development was measured at 490 nm on a Spectra MAX 340 microplate reader (Molecular Devices, Menlo Park, Calif.).

Row | Molecule | caspase-3 activation in presence of caspase inhibitor (LNCaP C4-2 cells) | caspase-7 activation in presence of caspase inhibitor (LNCaP C4-2 cells) | caspase-8 activation in presence of caspase inhibitor (LNCaP C4-2 cells) | tBid in presence of caspase inhibitor (LNCaP C4-2 cells) | caspase-3 activation in presence of caspase inhibitor (LNCaP cells) | caspase-7 activation in presence of caspase inhibitor (LNCaP cells) | caspase-8 activation in presence of caspase inhibitor (LNCaP cells) | tBid in presence of caspase inhibitor (LNCaP cells) | ability to induce apoptosis in prostate cancer cells (Sridhar et al., 2001) (prostate cancer cells) | effect of anti-androgen pre-treatment on response to TRAIL (PC3AR cells)
1 | Cbz-LEHD-CH2F | reduced caspase-3 activity | blocked activation of caspase-7 | did not affect caspase-8 activity | significantly reduced the levels of tBid | reduced caspase-3 activity | blocked activation of caspase-7 | did not affect caspase-8 activity | significantly reduced the levels of tBid | – | –
2 | CC/C(=C(\c1ccccc1)c1ccc(OCCN(C)C)cc1)c1ccccc1 [Tamoxifen] | – | – | – | – | – | – | – | – | marginal ability to induce apoptosis | –
3 | Cbz-IETD-CH2F | – | – | blocked activation of caspase-8 | tBid was not present | – | – | blocked activation of caspase-8 | tBid was not present | – | –
4 | CC(C)(O)C(=O)Nc1ccc([N+](=O)[O-])c(C(F)(F)F)c1 [hydroxyflutamide, reference compound] | – | – | – | – | – | – | – | – | – | did not alter their response to TRAIL
